According to patent US5562922A, “Drug incorporating and release polymeric coating for bioprosthesis” (Cedars-Sinai Medical Center, priority 1995, dated 1996):
“Also recorded” adds a separate entry of the source.

How the values were obtained:
[1] = In vitro drug release from polyurethane-coated stents, coils or films; conditions: for Total: total content; for initial release rate / release rate: release from polyurethane, Table 1A
Protocol: Drug incorporation into polyurethane-coated articles
Nitinol stents or stainless steel coils with surface area similar to nitinol stents were coated with Tecoflex 85A™ polyurethane to a thickness of about 50 microns in accordance with the manufacture's instructions for coating metal surfaces.
The drug loading procedure is carried out as follows: The desired compound is dissolved in a solution containing 3 parts ethanol and 1 part tetrahydrofuran (100 mg/ml for rhodamine B and 50 mg/ml for fluorescein dilaurate and forskolin).
When a hydrophilic compound such as hirulog was loaded in the polyurethane,the polyurethane was first loaded with sphingosine or any charged lipophilic molecule as described above. With this modification, the polyurethane will swell in organic solutions containing up to 10% water. The desired compound was then dissolved as 50 mg/ml in ethanol/tertrahydrofuran/water in a ratio of 65/25/1-20. The water content will vary according to the solubility of the desired compound in this solvent system.
After incubation, all stents, coils, and films were dried overnight at 40° C. at reduced pressure. To evaluate the ability of a charged lipid soluble drug to facilitate uptake and release of a water soluble compound, thin films containing 20 mg of polyurethane with or without 1 mg of sphingosine were produced by pour plating and drying overnight at 40° C. under reduced pressure. The films were then incubated in a solution of fluorescein disodium, a water soluble dye. After incubation, films were dried as described above.
After a 15 minute preincubation (wash step), stents, coils, or films were incubated for 2-3 days in 2 ml. of phosphate buffered saline (pH=7.4) or 5% bovine serum albumin in PBS at 37° C. in a shaking water bath. […] At the end of incubations, the polyurethane was dissolved in tertrahydrofuran and an aliquot analyzed to determine the quantity of compound remaining in the polymer. […] Solutions containing fluorescein dilaurate required addition of 200 μl of 10M sodium hydroxide to convert the fluorescein dilaurate into its colored form (release the two 16-carbon fatty acid dilaurate chains from the water soluble fluorescein molecule). Forskolin content was determined by scintillation counting.

[2] = Uptake by polymer, elution from polymer and tissue retention compared with forskolin; conditions: compared to forskolin
[3] = Etretinate delivery to vessel wall from coated stent (similar model); conditions: rabbit
[4] = Water solubility (in words); type: physicochemical
[5] = design: species or system New Zealand white rabbits; conditions: rabbit
Protocol: (§1) For these experiments, nitinol stents were coated with Tecoflex™, to a thickness of about 50-100 microns, and then incubated in a solution containing unlabelled and tritiated forskolin with a specific activity of 25 μCi/mg. Resulting stents contained approximately 1.5 mg. of forskolin in approximately 20 mg of 50-100 micron thick polymer matrix coating.
(§2) Instantaneous blood release rates were calculated by the following formula using the conservation of mass principle: [formula] where dM=change in mass, dT=change in time, M=mass, Q=flow, C1=upstream concentration, and C2=downstream concentration. Scintillation counts were then adjusted for measured background and efficiency. The amount of forskolin present was calculated by comparison of tissue activity to a 25 uCi/mg standard. For comparison of tissue and blood forskolin concentrations, blood levels were divided by specific gravity of rabbit blood (1.050 g/ml). Statistical analysis to assess differences between the multiple sites of the tissue samples was by one-way analysis of variances (ANOVA). If significant differences were found (p<0.05), pairwise comparisons were then performed using the t-test within ANOVA corrected for multiple comparisons (Bonferoni/Least Significant Difference tests).

[6] = tested on: carotid artery; design: species or system New Zealand white rabbits; conditions: rabbit, in vivo
Protocol: as §1, §2

[7] = tested on: carotid artery; assay: Carotid artery flow after stent delivery; type: in vivo, New Zealand white rabbits; conditions: 10.3±4.2 ml/min before
Protocol: as §1

[8] = tested on: carotid artery; assay: Rabbit carotid crush injury, low flow thrombosis model; type: in vivo, New Zealand white rabbits
Excerpt: To evaluate the thrombogenicity of polyurethane stent coatings, a rabbit carotid crush injury, low flow thrombosis model was developed. Briefly, New Zealand white rabbits (n=14) underwent anesthesia with ketamine and xylazine followed by surgical exposure of the right carotid and left femoral arteries. A 6 french sheath was placed in the left femoral artery and a 2.0 mm transit time flow probe (Transonics) was placed in the distal carotid artery. No anticoagulant was given. Repeated crush injury with a plastic coated clamp was performed at similar force for fifteen times over a one cm. distance usually producing a small decrement in flow rate. After 5 minutes, a bare or polyurethane coated nitinol stent was advanced to straddle the area of injury and balloon expanded. After a 15 minute equilibration period during which a 3.0 mm balloon occluder was placed proximal to the stent, the occluder was inflated to reduce flow to 4 ml/min. (40% of baseline). Continuous pressure monitoring via pressure transducer placed on line in the occluder inflation system was performed to ensure maintenance of consistent occlusion.
Continuous carotid artery flow and mean blood pressure were recorded by strip chart recorder. If the flow remained <0.5 ml/min, for 5 minutes, the artery was considered occluded and experiment terminated. […] After euthanasia, the artery was removed and cut longitudinally with a scalpel. The polyurethane coating was visually inspected for defects. Presence of white or red thrombus was also noted.

[9] = tested on: thrombosis on the catheter; conditions: released from intravascular catheters; cited from earlier work
[10] = tested on: intimal hyperplasia; conditions: polyvinyl alcohol based polymer beads, perivascular tissue, rats; cited from earlier work
[11] = Film + SPH (sphingosine), n = 2, buffer not given
[12] = Film without sphingosine, n = 2, buffer not given

Q: What does the source list for `CCN(CC)c1ccc2c(-c3ccccc3C(=O)O)c3ccc(=[N+](CC)CC)cc-3oc2c1` [Rhodamine B]?
A: Release Rate Day 1 ([1]; Coil, PBS, n = 3): 37.0 µg/h; Release Rate Day 2 ([1]; Coil, PBS, n = 3): 5.2 µg/h; Total ([1]; Coil, PBS, n = 3): 1.5 mg; initial release rate / release rate [1]: highest initial release rate

Q: With `CCOC(=O)/C=C(C)/C=C/C=C(C)/C=C/c1c(C)cc(OC)c(C)c1C` [Etretinate] as the compound, how does the “elution rate from the polymer” value [2] read?
A: The value was “decreased elution rate from the polymer”.

Q: And the “tissue retention” value [2]?
A: Its value is “increased tissue retention”.

Q: What about the “uptake by the polymer” value [2] of the same compound?
A: Its value is “increased uptake by the polymer”.

Q: What about the concentration at 72 h ([3]; vessel wall) of the same compound?
A: Its concentration at 72 h is 185000 ng/g.

Q: And the concentration at 24 h ([3]; vessel wall media)?
A: The concentration at 24 h was 250000 ng/g.

Q: Which results are given for `O=C1OC2(c3ccc(O)cc3Oc3cc(O)ccc32)c2ccccc21` [Fluorescein disodium, fluorescein disodium]?
A: water solubility [4]: water soluble; Release Rate Day 1 [1, 11]: 16.0 µg/h; Release Rate Day 2 [1, 11]: 4.0 µg/h; Release Rate Day 3 [1, 11]: 2.0 µg/h; Total ([1]; Film + SPH (sphingosine), n = 2): 1.1 mg; Release Rate Day 1 [1, 12]: 4.0 µg/h; Release Rate Day 2 [1, 12]: 1.8 µg/h; Release Rate Day 3 [1, 12]: 1.8 µg/h; Total ([1]; Film without sphingosine, n = 2): 0.3 mg; total content and delivery rate ([1]; with the addition of sphingosine (SPH) to the matrix): improved total content; also recorded: subsequently higher delivery rate

Q: Which “in vivo release rate” value [5] does the source give for `C=C[C@@]1(C)CC(=O)[C@]2(O)[C@@]3(C)[C@@H](O)CCC(C)(C)[C@@H]3[C@H](O)[C@H](OC(C)=O)[C@@]2(C)O1` [Forskolin] here?
A: Its value is 7.0 µg/min.

Q: And the “calculated instantaneous release rate into the bloodstream, initial” value ([5]; in vivo)?
A: The value was 6900 ng/min.

Q: And the “calculated instantaneous release rate into the bloodstream, over four hours” value ([5]; in vivo)?
A: Its value is 700 ng/min.

Q: What about the “peak forskolin blood level” value ([5]; in vivo) of the same compound?
A: Its value is 140 ng/mL.

Q: What about the “immediate forskolin blood level” value ([5]; in vivo, 0 min) of the same compound?
A: Its value is 57 ng/mL.

Q: And the blood level ([5]; in vivo, 24 h)?
A: The blood level was 68 ± 18 ng/mL.

Q: And the “concentration in adventitia overlying the stent relative to blood” value [6]?
A: Its value is 360 times.

Q: What about the “concentration in adventitia overlying the stent relative to contralateral artery” value [6] of the same compound?
A: Its value is 305 times.

Q: And the “concentration in media overlying the stent relative to blood” value [6]?
A: Its value is 450 times.

Q: What about the “concentration in media overlying the stent relative to contralateral artery” value [6] of the same compound?
A: Its value is 385 times.

Q: And the “forskolin levels in vessel proximal to, overlying and distal to stent” value [6]?
A: Its value is “significant levels of forskolin”.

Q: What about the “radial and longitudinal diffusion” value [6] of the same compound?
A: The value was “diffusion gradient in both longitudinal and radial directions away from the stent”.

Q: And the “washout from the vessel wall” value [6]?
A: Its value is “rapid”.

Q: And the “adventitia level in washout experiment, 2 hours” value ([6]; 2 h)?
A: Its value is 1.7 ng/mg.

Q: And the “media level in washout experiment, two hours” value ([6]; 2 h)?
A: The value was 1.2 ng FSK/mg tissue.

Q: And the “other adjacent tissues level in washout experiment, two hours” value ([6]; 2 h)?
A: Its value is less than 0.6 ng/mg.

Q: What about the adventitia level ([6]; 24 h) of the same compound?
A: The adventitia level was 4.1±1.8 ng FSK/mg tissue.

Q: And the “adventitia level in washout experiment, 24 hours” value ([6]; 24 h)?
A: Its value is 0.1 ng/mg.

Q: What about the “adventitia tissue to blood ratio” value ([6]; 24 h) of the same compound?
A: The value was 61±18.

Q: What about the media level ([6]; 24 h) of the same compound?
A: The media level was 4.9±1.2 ng/mg tissue.

Q: And the “media level in washout experiment, 24 hours” value ([6]; 24 h)?
A: The value was 0.2 ng FSK/mg.

Q: And the “media tissue to blood ratio” value ([6]; 24 h)?
A: Its value is 77±22.

Q: What about the “other adjacent tissues level in washout experiment, 24 hours” value ([6]; 24 h) of the same compound?
A: Its value is less than 0.1 ng/mg.

Q: What about the “carotid artery flow at 1 min” value ([7]; 1 min after stent delivery, p<0.005) of the same compound?
A: Its value is 15.9 ± 2.6 mL/min.

Q: And the “carotid artery flow at 60 min” value ([7]; 60 min after stent delivery, p<0.0001)?
A: The value was 19.6 ± 4.4 mL/min.

Q: What about the “thrombosis of the stented segment” value ([8]; compared to uncoated and coated stents) of the same compound?
A: The value was “prevented thrombosis of the stented segment”.

Q: What about the “effect on TCF and TTO” value ([8]; forskolin impregnated into the polyurethane) of the same compound?
A: Its value is “remarkably increased the time to cyclic flow (TCF) and time to occlusion (TTO)”.

Q: And the “Time to Cyclic Flow (TCF)” value ([8]; n = 5, p < 0.0001 compared to coated and uncoated (uncoated 16 ± 13, polymer coated 27 ± 17))?
A: The value was 208 ± 71 min.

Q: What about the “Time to Occlusion (TTO)” value ([8]; n = 5, uncoated 19 ± 18, polymer coated 54 ± 27) of the same compound?
A: The value was greater than 240 min.

Q: And the “stents exhibiting cyclic carotid blood flow” value ([8]; number of forskolin impregnated stents, n = 5)?
A: The value was “one”.

Q: What about the “visual inspection of thrombus” value ([8]; uncoated: mixed red and white thrombus, coated: predominately white thrombus) of the same compound?
A: Its value is “red thrombus only; also recorded: Absence of platelet rich white thrombus”.

Q: And the “water solubility” value [4]?
A: The value was “less soluble in aqueous solutions”.

Q: What about the “Release Rate Day 1” value ([1]; Stents, PBS, n = 3) of the same compound?
A: The value was 3.8 µg/h.

Q: And the “Release Rate Day 2” value ([1]; Stents, PBS, n = 3)?
A: Its value is 3.9 µg/h.

Q: And the “Release Rate Day 3” value ([1]; Stents, PBS, n = 3)?
A: The value was 1.6 µg/h.

Q: What about the Total ([1]; Stents, PBS, n = 3) of the same compound?
A: The Total was 4.4 mg.

Q: What about the “in vitro release rate” value ([1]; in vitro, compared with in vivo) of the same compound?
A: Its value is 0.5 µg/min.

Q: And the “initial release rate / release rate” value [1]?
A: The value was “slower release rate”.

Q: For `CCCCCCCCCCCC(=O)Oc1ccc2c(c1)Oc1cc(OC(=O)CCCCCCCCCCC)ccc1C21OC(=O)c2ccccc21` [Fluorescein dilaurate, fluorescein dilaurate], which “water solubility” value [4] is on record?
A: Its value is “insoluble in water”.

Q: And the “Release Rate Day 1” value ([1]; Coil, 5% BSA, n = 1)?
A: Its value is 3.4 µg/h.

Q: What about the “Release Rate Day 2” value ([1]; Coil, 5% BSA, n = 1) of the same compound?
A: The value was 2.3 µg/h.

Q: What about the “Release Rate Day 1” value ([1]; Film, 5% BSA, n = 2) of the same compound?
A: The value was 4.6 µg/h.

Q: And the “Release Rate Day 2” value ([1]; Film, 5% BSA, n = 2)?
A: Its value is 3.7 µg/h.

Q: What about the “initial release rate / release rate” value [1] of the same compound?
A: The value was “required 5% albumin to promote release”.

Q: With heparin as the compound, how does the “thrombosis on the catheter” value [9] read?
A: The value was “sufficient to decrease thrombosis on the catheter”.

Q: And the “intimal hyperplasia” value [10]?
A: Its value is “inhibited intimal hyperplasia”.
